Measured values published in article PMC10667265 (Scientific Reports, 2023).
Like-named read-outs stand apart in the source and are kept apart here. Where no end group is shown, it is not given here.

Experiments:
[1] = infiltrated into the abaxial side of leaves of potato plants; methanolic extracts of leaf disks; conditions: potato (Solanum tuberosum cv. Désirée), 20 °C, up to 8 h
[2] = for amidated StPIP1_1 remaining: two independent experiments, n = 16 (Fig. 6A)
[3] = exogenous application to leaves; cited from earlier work
Text: In Arabidopsis, PIPs are encoded by 11 genes. […] Recently, the PAMP-induced peptides StPIP1 to StPIP4 were described in potato (Solanum tuberosum[23]).

potato = conditions: used as control for Pep-13; cited from earlier work
Protocol: Potato plants (Solanum tuberosum cv. Désirée) were cultivated in sterile tissue culture in a phytochamber (16 h light, ~ 140 µE, 22 °C). Plants were transferred to steam-sterilized soil and grown for 4 weeks under long day conditions in a phytochamber (16 h light, ~ 140 µE, 60% humidity, 20 °C). PAMP treatment was performed with leaf disks that were cut out from 4-week-old potato plants with a biopsy puncher (4 mm diameter) and placed with the abaxial side onto the surface of 250 µl of water in a 96-well plate. The plate was incubated overnight at 22 °C in the dark. Water from the wells was re ...

Substance: RLPSGPSPRGPGH-NH2
- cleaved bond [1]: H-NH2, within minutes

Substance: RLPSGPSPRGPGH-NH2 [StPIP1_1]
- amidated StPIP1_1 remaining ([2]; 100 µM amidated peptide infiltrated into leaves of phytochamber-grown potato plants, 30 min after infiltration, methanolic leaf extracts, LC-MS): 20%
- amidated StPIP1_1 remaining ([2]; 100 µM amidated peptide infiltrated into potato leaves, 1 h after infiltration, LC-MS): 10%

Substance: TLGGIKAGPSPGEGHKVVNSHHQ [StPIP1]
- ROS production [3]: does not induce
- increases in the cytosolic Ca2+ concentrations [3]: does not induce

Substance: VANQPVRGFKVYE [W2A]
- elicitor activity relative to Pep-13 (potato): nearly inactive

Substance: VWNQPVRGFKVYE [acidic form of Pep-13]
- time within which the acidic form was degraded ([2]; after infiltration of 100 µM amidated Pep-13 into potato leaves, LC-MS (Fig. 6D)): ≤ 1 h

Substance: VWNQPVRGFKVYE-NH2
- cleaved bond [1]: E-NH2, within 30 min

Substance: VWNQPVRGFKVYE-NH2 [Pep-13, reference compound]
- time within which the amidated peptide was converted to the acidic form ([2]; 100 µM amidated Pep-13 infiltrated into potato leaves, LC-MS, two independent experiments (Fig. 6C)): ≤ 30 min
